Reference: US6903111B2 (priority 2001, dated 2005)

SMILES | melting point [°C]
O=C(Nc1ccncc1)[C@H](CC(=O)N1CC2CCC1CC2)Cc1ccccc1 | 171 to 172
O=C(O)C(=O)N[C@H](CC(=O)N1CC2CCC1CC2)Cc1ccccc1 | 156 to 159
O=C(O)CC(=O)N[C@H](CC(=O)N1CC2CCC1CC2)Cc1ccccc1 | 149 to 151
O=C(C[C@@H](Cc1ccccc1)NS(=O)(=O)C(F)(F)F)N1CC2CCC1CC2 | 128 to 130
CS(=O)(=O)N[C@@H](CC(=O)N1CC2CCC1CC2)Cc1ccccc1 | 129 to 130
O=C(Oc1ccc(NS(=O)(=O)C(F)(F)F)cc1)[C@H](CC(=O)N1CC2CCC1CC2)Cc1ccccc1 | 60 to 62
O=C(Nc1ccc(NS(=O)(=O)C(F)(F)F)cc1)[C@H](CC(=O)N1CC2CCC1CC2)Cc1ccccc1 | 136 to 138
CCOc1cc(CC(=O)N[C@H](CC(=O)N2CC3CCC2CC3)Cc2ccccc2)ccc1C(=O)O | 100 to 103
O=C(O)/C=C/[C@H](CC(=O)N1CC2CCC1CC2)Cc1ccccc1 | 52 to 53
O=C(O)CC[C@H](CC(=O)N1CC2CCC1CC2)Cc1ccccc1 | 79 to 81
O=C(Nc1cc(F)c(O)c(F)c1)[C@H](CC(=O)N1CC2CCC1CC2)Cc1ccccc1 | 118 to 120
O=C(O)C(C[C@H](CC(=O)N1CC2CCC1CC2)Cc1ccccc1)C(=O)O | 78 to 80
O=C(O)C(O)[C@H](CC(=O)N1CC2CCC1CC2)Cc1ccccc1 (stereo partly drawn) | 60 to 61
O=C(Nc1nccs1)[C@H](CC(=O)N1CC2CCC1CC2)Oc1ccccc1 | 60 to 65
O=C(C[C@H](Cc1ccccc1)Nc1c(O)c(=O)c1=O)N1CC2CCC1CC2 | 156 to 158
O=C(O)[C@H](CCOc1ccccc1)CC(=O)N1CC2CCC1CC2 | 115 to 117
O=C(O)[C@H](CC(=O)N1CC2CCC1CC2)Cc1ccccc1 [Compound 1, (2S)-2-benzyl-4-(isoquinuclidin-2-yl)-4-oxo-butanoic acid] | 93 to 95
O=C([O-])[C@H](CC(=O)N1CC2CCC1CC2)Cc1ccccc1.[Na+] [Compound 11] | > 250
O=C(Oc1ccccc1)[C@H](CC(=O)N1CC2CCC1CC2)Cc1ccccc1 [Compound 15, (2S)-2-benzyl-4-(isoquinuclidin-2-yl)-4-oxo-butanoic acid phenylester] | 112 to 113
O=C(Oc1ccc(O)cc1)[C@H](CC(=O)N1CC2CCC1CC2)Cc1ccccc1 [Compound 18, p-hydroxy phenyl (2S)-2-benzyl-4-(isoquinuclidine-2-yl)-4-oxo-butyrate] | 61 to 64
O=C(O)[C@H](CCN1CC2CCC1CC2)Cc1ccccc1 [Compound 47] | 171 to 174
CN(c1c(O)c(=O)c1=O)[C@H](CC(=O)N1CC2CCC1CC2)Cc1ccccc1 [Compound 52, N-(3-hydroxy-3-cyclobutene-1,2-dione-4-yl)-N-methyl-(1S)-[2-(isoquinuclidin-2-yl)-2-oxo-ethyl]-phenyl ethylamine] | 153 to 155

Next, values leading:

melting point [°C] | SMILES
155 to 158 | O=C(C[C@H](Cc1ccccc1)NS(=O)(=O)C(F)(F)F)N1CC2CCC1CC2
127 to 129 | CS(=O)(=O)N[C@H](CC(=O)N1CC2CCC1CC2)Cc1ccccc1
69 to 72 | O=C(Nc1nccs1)[C@H](CC(=O)N1CC2CCC1CC2)Cc1ccccc1
78 to 80 | O=C(Cc1ccc(NS(=O)(=O)C(F)(F)F)cc1)N[C@H](CC(=O)N1CC2CCC1CC2)Cc1ccccc1
79 to 80 | O=C(Cc1ccc(NC(=O)C(=O)O)cc1)N[C@@H](CC(=O)N1CC2CCC1CC2)Cc1ccccc1
200 to 201 | O=C(O)C(=O)Nc1ccc(C(=O)N[C@@H](CC(=O)N2CC3CCC2CC3)Cc2ccccc2)cc1
84 to 85 | O=C(O)C(C[C@H](CC(=O)N1CC2CCC1CC2)CC1CCCCC1)C(=O)O
140 to 142 | O=C(O)[C@H](CC(=O)N1CC2CCC1CC2)Oc1ccccc1
148 to 151 | O=C(C[C@@H](C=NOS(=O)(=O)O)Cc1ccccc1)N1CC2CCC1CC2
117 to 119 | O=C(O)[C@@H](CCOc1ccccc1)CC(=O)N1CC2CCC1CC2
92 to 95 | O=C(OC1CCCCC1)[C@H](CC(=O)N1CC2CCC1CC2)Cc1ccccc1 [Compound 14]
